Experimental data: patent USRE44704E1, “Compositions and methods for treating cancer using immunoconjugates and chemotherapeutic agents” (Immunogen Inc., priority 1999, dated 2014)
Like-named read-outs stand apart in the source and are kept apart here.

What was measured:
[1] = tested on: human small cell lung cancer SW-2 cells; assay: Anti-tumor effect of huN901-DM1, docetaxel and their combination in established subcutaneous SW-2 xenograft model (Example 4, FIG. 7); type: in vivo; details: SW-2 s.c. xenografts, SCID mice, tumors about 100 mm^3 at start; docetaxel 5 mg/kg×5 q2d i.v.; huN901-DM1 DM1 dose 75 μg/kg×5 qd i.v.
Description: Tumor size was calculated with the formula: length×width×height×½.
In 3 out of 6 animals in this treatment group, the tumor was eradicated—resulting in cures lasting greater than 200 days. In the remaining 3 animals in this group, there was a tumor growth delay of 52 days, which is 24 days longer than the calculated additive effect.

[2] = tested on: human small cell lung cancer SW-2 cells; assay: Anti-tumor effect of huN901-DM1, topotecan and their combination in established subcutaneous SW-2 xenograft model (Example 5, FIG. 8); type: in vivo; details: SCID mice
Description: FIG. 8 is a graph comparing the anti-tumor activity of (i) a control, (ii) huN901-DM1, (iii) topotecan, and (iv) the combination of huN901-DM1 and topotecan, against small cell lung cancer xenografts in SCID mice.
The anti-tumor effect of a combination of a low dose of huN901-DM1 and topotecan (available as HYCAMTIN® from SmithKline Beecham Pharmaceuticals), one of the approved drugs for the treatment of small cell lung cancer (SCLC) in humans, was evaluated in an established subcutaneous xenograft model of SCLC. SCID mice (24 animals) were inoculated with human small cell lung cancer SW-2 cells (8×10^6 cells/animal) injected subcutaneously into the right flank of the mice. When the tumors reached about 80 mm^3 in size, the mice were randomly divided into four groups (6 animals per group). The first group of mice was treated with topotecan (1.4 mg/kg×5, qd) administered i.v. A second group of animals was treated with huN901-DM1 (DM1 dose of 100 μg/kg×5, qd) administered i.v. The third group of mice received a combination of topotecan and huN901-DM1, using the same doses and schedules as in groups 1 and 2. A control group of animals received phosphate-buffered saline (PBS) using the same schedule as the animals in group 2. Tumor growth was monitored by measuring tumor size twice per week. Tumor size was calculated using the formula: length×width×height×½.

[3] = tested on: human colon cancer HT-29 cells; assay: Anti-tumor effect of C242-DM1, CPT-11 and their combination in established subcutaneous HT-29 xenograft model (Example 7, FIG. 10); type: in vivo; details: HT-29 s.c. xenografts, SCID mice, tumors about 80 mm^3 at start; CPT-11 50 mg/kg×2 q3d i.v.; C242-DM1 DM1 dose 75 μg/kg×5 qd i.v.
Description: (§1) A control group of animals received phosphate-buffered saline (PBS) using the same schedule as the animals in group 2. Tumor growth was monitored by measuring tumor size twice per week. Tumor size was calculated using the formula: length×width×height×½.

[4] = tested on: human lung adenocarcinoma NCI-H441 cells; details: NCI-H441 s.c. xenografts, SCID mice, tumors about 125 mm^3 at start; paclitaxel 15 mg/kg×5 q2d i.p.
Description: as §1

[5] = tested on: NCI N417 cells (small cell lung cancer xenografts); type: in vivo; details: NCI N417 s.c. xenografts, SCID mice, tumors approx. 100 mm^3 at start; huN901-DM1 DM1 dose 75 μg/kg/d×5 i.v.; paclitaxel 10 mg/kg/d×5 i.p.
Description: In this experiment, a low, non-curative dose of huN901-DM1 was used with an optimal does of paclitaxel (Sigma Chemical Co., St. Louis, Mo.). SCID mice (7 animals per group) were inoculated subcutaneously with NCI N417 cells (8×10^6 cells/animal). After the tumors were well-established (average tumor size was approximately 100 mm^3), one group of animals was treated with huN901-DM1 at a DM1 dose of 75 μg/kg/d×5, administered i.v. everyday. A second group of animals was treated with paclitaxel at a dose of 10 mg/kg/d×5, administered by i.p. everyday. […] A fourth, control group of animals was left untreated. Tumor size was measured as described by Liu et al, Proc. Natl. Acad. Sci., 93:8618-8623 (1996). Animals were also monitored for weight loss as an indicator of signs of toxicity.
In the control group of animals, the tumors grew rapidly to a size of about 900 mm^3 by Day 28 post-tumor inoculation. In animals treated with either huN901-DM1 or paclitaxel, there was a modest anti-tumor effect with a tumor growth delay of 4 days in each case.

[6] = tested on: NCI N417 cells (small cell lung cancer xenografts); assay: Anti-tumor activity of huN901-DM1, cisplatin plus etoposide, and the triple combination against established NCI N417 xenografts (Example 3, FIG. 6); type: in vivo; details: NCI N417 s.c. xenografts, SCID mice; huN901-DM1 DM1 dose 75 μg/kg/d×5 i.v.; cisplatin 2 mg/kg/d×3 i.v. every other day; etoposide 8 mg/kg/d×3 every other day
Description: In this experiment, a low, non-curative dose of huN901-DM1 was used with an optimal dose of cisplatin (Sigma Chemical Co., St. Louis, Mo.) and etoposide (Sigma Chemical Co., St. Louis, Mo.). SCID mice (7 animals per group) were inoculated subcutaneously with NCI N417 cells (8×10^6 cells/animal). After the tumors were well-established (average tumor size was approximately 100 mm^3), one group of animals was treated with huN901-DM1 at a DM1 dose of 75 μg/kg/d×5, administered i.v. everyday. A second group of animals was treated with cisplatin (at a dose of 2 mg/kg/d×3, administered by i.v. ever other day) and etoposide (at a dose of 8 mg/kg/d×3, administered every other day). A third group of animals was treated with huN901-DM1, cisplatin and etoposide using the same dose and schedule used for a the individual agents. A fourth, control group of animals was left untreated. Tumor size was measured as described by Liu et al, Proc. Natl. Acad. Sci., 93:8618-8623 (1996). Animals were also monitored for weight loss as an indicator of signs of toxicity.
In the control group of animals, the tumors grew rapidly to a size of about 900 mm^3 by Day 28 post-tumor inoculation. In animals treated with either huN901-DM1 or cisplatin and etoposide, there was a modest anti-tumor effect with a tumor growth delay of 4 days in each case.

Molecule: CC(=O)O[C@@]12CO[C@@H]1C[C@H](O)[C@@]1(C)C(=O)[C@H](O)C3=C(C)[C@@H](OC(=O)[C@H](O)[C@@H](NC(=O)OC(C)(C)C)c4ccccc4)C[C@@](O)([C@@H](OC(=O)c4ccccc4)[C@H]21)C3(C)C [docetaxel]
- tumor growth delay [1]: 8 days

Molecule: CC[C@@]1(O)C(=O)OCc2c1cc1n(c2=O)Cc2cc3c(CN(C)C)c(O)ccc3nc2-1 [topotecan]
- tumor growth delay ([2]; SW-2 s.c. xenografts, tumors about 80 mm^3 at start, topotecan 1.4 mg/kg×5 qd i.v.): 12 days

Molecule: CCc1c2c(nc3ccc(OC(=O)N4CCC(N5CCCCC5)CC4)cc13)-c1cc3c(c(=O)n1C2)COC(=O)[C@]3(O)CC [CPT-11, irinotecan]
- tumor growth delay [3]: 6 days

Molecule: CC(=O)O[C@H]1C(=O)[C@@]2(C)[C@H]([C@H](OC(=O)c3ccccc3)[C@]3(O)C[C@H](OC(=O)[C@H](O)[C@@H](NC(=O)c4ccccc4)c4ccccc4)C(C)=C1C3(C)C)[C@]1(OC(C)=O)CO[C@@H]1C[C@@H]2O [paclitaxel]
- tumor growth delay [4]: 4 days
- tumor growth delay [5]: 4 days

B1: huN901-DM1: maytansinoid DM1 conjugated via SPP disulfide link to humanized monoclonal antibody N901 (binds CD56); 3.9 DM1 molecules per antibody (conjugate, chains of the INN, looked up)
VH: QVQLVESGGGVVQPGRSLRLSCAASGFTFSSFGMHWVRQAPGKGLEWVAYISSGSFTIYYADSVKGRFTISRDNSKNTLYLQMNSLRAEDTAVYYCARMRKGYAMDYWGQGTLVTVSS
VL: DVVMTQSPLSLPVTLGQPASISCRSSQIIIHSDGNTYLEWFQQRPGQSPRRLIYKVSNRFSGVPDRFSGSGSGTDFTLKISRVEAEDVGVYYCFQGSHVPHTFGQGTKVEIK
modifications: DM1 via SPP disulfide linker
notes: 3.9 DM1 molecules per antibody
- tumor growth delay [1]: 20 days
- animals with complete tumor regression ([2]; SW-2 xenografts, 6 animals per group, topotecan 1.4 mg/kg×5 qd i.v., huN901-DM1 100 μg/kg×5 qd i.v.): 3 animals
- tumor-growth delay in 3 out of 6 animals ([2]; SW-2 xenografts, huN901-DM1 DM1 dose 100 μg/kg×5 qd i.v., the 3 animals without complete regression): 34 days
- tumor growth delay [6]: 4 days
- tumor growth delay [5]: 4 days
